Measured values published in ChEMBL document CHEMBL5604062, “ASAP - ZIKV NS2B-NS3 protease fluorescence dose response” (2024).
Several values for one entry are separate records, joined by “and”; a condition that tells them apart may be missing. Equal entries are not always repeated.

biological target: Nonstructural protein 3 (Zika virus, UniProt A0A024AXB9); assay: Functional biochemical assay to identify treatments for viral infectious disease that targets Zika NS2B-NS3 protease. Utilizing a direct enzyme activity measurement method, reading the fluorescence intensity is used to characterize the relative potency of inhibitors as IC50.; design: species or system PRVABC59
Sequence (A0A024AXB9 whole entry): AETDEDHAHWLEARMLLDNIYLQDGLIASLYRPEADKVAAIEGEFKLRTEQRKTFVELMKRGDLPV

Going from `O=C1c2c(O)ccc([N+](=O)[O-])c2C(=O)c2c([N+](=O)[O-])ccc(O)c21` to `COc1ccc(S(=O)(=O)Nc2ccc(C(=O)Nc3nc4ccccc4s3)cc2)cc1`, the IC50 rises from 57.1 µM to greater than 99.5 µM.

`CNC(=O)C(=O)/C=C/c1ccccc1` and `CNC(=O)C(=O)/C=C/c1ccccc1C` cannot be ordered by IC50: greater than 198 µM for the first, greater than 198 µM for the second.

`O=C(/C=C/c1ccccc1)C(=O)N1CCOCC1` and `O=C(/C=C/c1ccccc1CN1CCCCC1)C(=O)N1CCOCC1` cannot be ordered by IC50: greater than 198 µM for the first, greater than 198 µM for the second.

Going from `O=C(Cn1sc2ccccc2c1=O)Nc1cccc(OCc2cn(CC(=O)Nc3ccccc3Oc3ccccc3)nn2)c1` to `NCc1cccc(NC(=O)[C@@H](NC(=O)OCc2ccccc2)c2ccc(OCc3ccccc3)cc2)c1`, the IC50 rises from 2.06 µM to 11.6 µM (5.6-fold).

Going from `COc1ccc(S(=O)(=O)n2nc(OC(=O)c3cccc(-c4ccccc4Cl)c3)cc2N)cc1` to `COc1ccc(S(=O)(=O)n2nc(OC(=O)c3ccccc3)cc2N)cc1`, the IC50 rises from 0.183 µM to 1.16 µM (6.3-fold).

`CCCCCC(=O)N[C@H](C(=O)NCc1ccc(NC(=N)N)cc1)c1ccc(OCc2ccccc2)cc1` and `NCc1ccc(NC(=O)[C@@H](NC(=O)OCc2ccccc2)c2ccc(OCc3ccccc3)cc2)cc1` cannot be ordered by IC50: greater than 99.5 µM for the first, greater than 99.5 µM for the second.

`O=C(Nc1ccc2c(c1)B(O)OC2)c1cccc(OCc2c(Cl)cccc2Cl)c1` and `CNC(=O)c1cc(Cl)ccc1NS(=O)(=O)c1ccc(Oc2ccccc2Cl)cc1` cannot be ordered by IC50: greater than 99.5 µM for the first, greater than 99.5 µM for the second.

`CCCCCC(=O)N[C@H](C(=O)N1CCC(CN)CC1)c1ccc(OCc2ccccc2)cc1` and `CCCC[C@H](NC(C)=O)C(=O)N[C@H](C(=O)NCc1ccc(CN)cc1)c1ccccc1` cannot be ordered by IC50: greater than 99.5 µM for the first, greater than 99.5 µM for the second.

`CC1(C)OB(c2ccc(Cl)cc2CNC2CCCCC2)OC1(C)C` and `CC1(C)OB(c2cccc(F)c2CNC2CCCC2)OC1(C)C` cannot be ordered by IC50: greater than 99.5 µM for the first, greater than 99.5 µM for the second.

Going from `O=C(/C=C/c1ccccc1)C(=O)N1CCN(CCc2ccccc2)CC1` to `N=C(N)NCCc1ccc(NC(=O)Cc2ccccc2)cc1`, the IC50 rises from 44.9 µM to greater than 198 µM. The first is the more potent here.

`COc1cc(COc2cccnc2F)nc(N2CCNCC2)n1` and `COc1cc(COc2cncc3ccccc23)nc(N2CCNCC2)n1` cannot be ordered by IC50: greater than 99.5 µM for the first, greater than 99.5 µM for the second.

`NC(=O)c1cn(C[C@H]2CCCN2c2ccnc3ccccc23)nn1` and `CCn1ccnc(N2CC[C@H](c3c[nH]c4ccccc34)C2)c1=O` cannot be ordered by IC50: greater than 99.5 µM for the first, greater than 99.5 µM for the second.

`N=C(N)NCCc1ccccc1B(O)O` and `N=C(N)NCCc1cccc(B(O)O)c1` cannot be ordered by IC50: greater than 100 µM for the first, greater than 100 µM for the second.

`N=C(N)NCCc1ccc(OC(=O)Nc2ccccc2)cc1` and `N=C(N)NCc1ccc(OC(=O)Nc2ccccc2)cc1` cannot be ordered by IC50: greater than 100 µM for the first, greater than 100 µM for the second.

`COC(=O)c1cncc(OCc2cc(OC)nc(N3CCNCC3)n2)c1` and `COc1cc(Cc2ccc3[nH]ncc3c2)nc(N2CCNCC2)n1` cannot be ordered by IC50: greater than 99.5 µM for the first, greater than 99.5 µM for the second.

`COC(=O)c1csc2cc(C(=O)N3CCCc4cc(CCN)ccc43)[nH]c12` and `N[C@H]1CCN(c2cccc(CNC(=O)c3ccc4[nH]c(=O)[nH]c4c3F)n2)C1` cannot be ordered by IC50: greater than 99.5 µM for the first, greater than 99.5 µM for the second.

First: COc1cc(Cc2c(-c3ccc(F)cc3)noc2C)nc(N2CCNCC2)n1
Second: CS(=O)(=O)c1ccc(N2CCNCC2)cc1NC(=O)c1cccc2ncccc12
The IC50 of the first is lower: 70.4 µM for the first, greater than 99.5 µM for the second. The first is the more potent here.

`N=C(N)Nc1ccc(NC(=O)Oc2ccccc2)cc1` and `N=C(N)Nc1ccc(OC(=O)Nc2ccccc2)cc1` cannot be ordered by IC50: greater than 100 µM for the first, greater than 100 µM for the second.

Going from `N=C(N)NCCc1ccc(NC(=O)C(=O)/C=C/c2ccc(N)cc2)cc1` to `N=C(N)NCCc1ccc(NC(=O)C(=O)c2ccccc2)cc1`, the IC50 rises from 36.7 µM to greater than 198 µM.

`CN(C)Cc1ccc(C(=O)Nc2cc(Cl)cc(C(=O)NC(C)(C)CO)c2)[nH]1` and `N=C(N)NCCc1ccc(NC(=O)c2ccccc2)cc1` cannot be ordered by IC50: greater than 99.5 µM for the first, greater than 198 µM for the second.

`N=C(N)NCc1ccc(NC(=O)Oc2ccccc2)cc1` and `O=C(Nc1ccc(F)nc1)Oc1ccccc1` cannot be ordered by IC50: greater than 100 µM for the first, greater than 100 µM for the second.

`Cc1nc([C@H]2CCCNC2)[nH]c1C(=O)Nc1ccccn1` and `NS(=O)(=O)c1nc(C(=O)N2CCc3c(CO)cccc32)n2ccccc12` cannot be ordered by IC50: greater than 99.5 µM for the first, greater than 99.5 µM for the second.

In the case of `CCCCCC(=O)N[C@H](C(=O)NCc1cccc(CN)c1)c1ccc(OCc2ccccc2)cc1`, the IC50 is reported as 73.3 µM and 80.1 µM.
In the case of `N=C(N)NCCc1ccc(NC(=O)Oc2ccccc2)cc1`, the IC50 is reported as 87.4 µM and 21.5 µM.
